According to patent publication US20240279298A1 (BEIJING TUO JIE BIOPHARMACEUTICAL CO. LTD., priority 2021, published 2024):
Where a SMILES comes first, the peptide text is derived from it. [ ]: non-standard residue; d: D form. Aib = CC(C)(N)C(=O)O

Assay: Pharmacokinetics in rats after subcutaneous injection
Assay type: in vivo, SD rats
Settings: plasma
Experimental: (1) Animals were grouped according to Table 12, and were given free access to water and food before administration.
• Sampling time: 0 min pre-dose, and 2 min, 4 min, 7 min, 10 min, 20 min, 40 min, 1 h and 2 h post-dose. Blood was collected from rats by jugular catheterization.
• 1) 0.2 mL of whole blood was collected at each time point into a centrifuge tube containing EDTA-K2; • 2) The blood samples were centrifuged at 4000 g at 4° C. for 5 min, and separated to give the plasma; • 3) The plasma samples were cryopreserved at −80° C.
The mixture was vortexed for 5 min and centrifuged at a low temperature for 10 min. 100 μL of the supernatant was taken and added to 100 μL of 0.1% formic acid aqueous solution. The mixture was mixed well, and loaded on the instrument for analysis; • Liquid chromatography and mass spectrometry analysis: LC-30A liquid chromatography system (Shimadzu, Japan) and API 5500 liquid chromatography-triple quadrupole mass spectrometer (Analyst Software data processing system, AB Sciex, USA) were used. The chromatographic column was nanomicro Unisil C18aq (4.6 mm×150 mm, 5 μm) chromatographic column; the column temperature was 40° C.; the mobile phase A was 0.1% formic acid aqueous solution, and the mobile phase B was 0.1% formic acid in acetonitrile; the flow rate was 0.5 mL/min; the injection volume was 20 μL; the gradient is shown in Table 13 below. The mass spectrum was obtained using an electrospray ionization (ESI) source, a positive ion analysis mode and a multi reaction monitoring (MRM) scanning mode.
The plasma concentration of the test compounds was measured by HPLC-MS/MS. The plasma concentration-time curve was plotted, and the pharmacokinetic parameters were calculated by PKSolver.

[1] = male SD rats, single SC injection, Dasiglucagon 5 mg/kg, 40 5.06 mg/kg

CC(C)C[C@H](NC(=O)[C@H](Cc1ccc(O)cc1)NC(=O)[C@H](CCCCN)NC(=O)[C@H](CO)NC(=O)[C@H](Cc1ccc(O)cc1)NC(=O)[C@H](CC(=O)O)NC(=O)[C@H](CO)NC(=O)[C@@H](NC(=O)[C@H](Cc1ccccc1)NC(=O)[C@@H](NC(=O)CNC(=O)[C@H](CCC(N)=O)NC(=O)[C@H](CO)NC(=O)[C@@H](N)Cc1c[nH]cn1)[C@@H](C)O)[C@@H](C)O)C(=O)N[C@@H](CC(=O)O)C(=O)N[C@@H](CC(C)C)C(=O)NC(C)(C)C(=O)N[C@@H](CCCNC(=N)N)C(=O)N[C@@H](C)C(=O)N[C@@H](CCC(N)=O)C(=O)N[C@@H](CCC(=O)O)C(=O)N[C@@H](Cc1ccccc1)C(=O)N[C@H](C(=O)N[C@@H](CCC(N)=O)C(=O)N[C@@H](Cc1c[nH]c2ccccc12)C(=O)N[C@@H](CC(C)C)C(=O)N[C@@H](CCC(=O)O)C(=O)N[C@@H](CO)C(=O)N[C@H](C(=O)O)[C@@H](C)O)C(C)C [Compound 40] (H-HSQGTFTSDYSKYLDL[Aib]RAQEFVQWLEST-OH) showed an AUClast/D [1] of 176 h·ng/mL per mg/kg, a T1/2 [1] of 24.8 min and a Tmax (male, SD, rat, sc) of 7.02 min. It also gave a half-life (male, SD, rat, sc, male SD rats, single SC injection, Dasiglucagon 5 mg/kg, 40 5.06 mg/kg) of 24.6 min and a bioavailability (male, SD, rat, sc, read-out: Bioavailability (F %)) of 88.2%.
